Measured values published in patent US7786141B2 (Vertex Pharmaceuticals Incorporated, priority 2004, dated 2010).
Like-named read-outs stand apart in the source and are kept apart here.

Experiments:
M4 muscarinic receptor = biological target: T1, M4 muscarinic receptor (Homo sapiens, UniProt P08173); experiment: Functional mobilization of intracellular calcium (FLIPR) in M4-CHO cells; type: cell-based
T1 construct: expressed in transfected cells; host or cells: CHO (M4-CHO)
T1 sequence (P08173 1-479): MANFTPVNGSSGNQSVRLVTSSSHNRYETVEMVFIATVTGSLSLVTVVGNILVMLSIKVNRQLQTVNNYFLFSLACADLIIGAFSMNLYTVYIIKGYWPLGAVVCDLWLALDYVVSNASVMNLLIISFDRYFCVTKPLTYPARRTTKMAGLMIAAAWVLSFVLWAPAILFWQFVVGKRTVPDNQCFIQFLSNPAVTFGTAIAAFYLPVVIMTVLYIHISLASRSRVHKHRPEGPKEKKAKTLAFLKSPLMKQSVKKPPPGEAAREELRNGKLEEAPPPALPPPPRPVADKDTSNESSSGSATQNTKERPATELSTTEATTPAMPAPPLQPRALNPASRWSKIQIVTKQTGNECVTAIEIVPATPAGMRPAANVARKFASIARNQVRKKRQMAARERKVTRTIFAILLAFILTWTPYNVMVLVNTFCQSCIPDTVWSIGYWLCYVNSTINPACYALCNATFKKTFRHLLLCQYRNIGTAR
How it was run: (§1)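 CHO cells stably expressing human M1 or M4 receptor were loaded with Fluo-3 AM (or Calcium 3 dye) in Hepes-buffered saline, pH 7.4, with 1 mM probenecid, 0.5% final DMSO. Agonist mode: compound added directly; antagonist mode: 15 min preincubation before carbachol at EC80. FLIPR fluorescence recorded 60 sec.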

M1 muscarinic receptor = biological target: T2, M1 muscarinic receptor (Homo sapiens, UniProt P11229); experiment: Functional mobilization of intracellular calcium (FLIPR) in M1-CHO cells; type: cell-based
T2 construct: expressed in transfected cells; host or cells: CHO (M1-CHO)
T2 sequence (P11229 1-460): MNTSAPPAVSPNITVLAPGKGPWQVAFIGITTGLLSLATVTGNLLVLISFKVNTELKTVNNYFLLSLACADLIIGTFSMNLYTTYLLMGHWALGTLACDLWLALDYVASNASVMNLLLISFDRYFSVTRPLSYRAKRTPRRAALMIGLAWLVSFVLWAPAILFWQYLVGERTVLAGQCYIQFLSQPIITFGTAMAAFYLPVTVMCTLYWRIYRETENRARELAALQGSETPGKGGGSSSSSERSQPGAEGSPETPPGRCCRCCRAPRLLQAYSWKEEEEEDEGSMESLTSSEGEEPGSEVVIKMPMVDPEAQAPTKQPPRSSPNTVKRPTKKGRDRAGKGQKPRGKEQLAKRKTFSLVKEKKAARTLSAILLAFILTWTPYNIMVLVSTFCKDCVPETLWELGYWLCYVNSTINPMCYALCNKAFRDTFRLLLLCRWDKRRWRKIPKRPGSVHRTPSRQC
How it was run: as §1

[1] = Table 4, 100% efficacy is the maximum response obtained with the Carbachol control
[2] = Table 4, M4 receptor, calcium mobilization (FLIPR)
[3] = Table 4, M1 receptor, calcium mobilization (FLIPR)
[4] = Table 4, modulating M4 receptor
[5] = Table 4, modulating M1 receptor
[6] = M4 receptor, calcium mobilization
[7] = M4 receptor, calcium mobilization, read-out: M4 Efficacy
[8] = M1 receptor, calcium mobilization
[9] = M1 receptor, calcium mobilization, read-out: M1 Efficacy
[10] = M4-CHO cells, calcium mobilization (FLIPR)
[11] = M4-CHO cells, calcium mobilization (FLIPR), read-out: M4 Efficacy
[12] = M1-CHO cells, calcium mobilization (FLIPR)
[13] = M1-CHO cells, calcium mobilization (FLIPR), read-out: M1 Efficacy

COC(=O)N1CC[C@@H](CN2CCC3(CC2)CN(C(C)=O)c2ccccc23)C1 [compound 923]
Emax (M4 muscarinic receptor; [1]): 25 to 100%
M4 Activity (M4 muscarinic receptor; [2]): xxx (activity was measured to be less than 2.0 μM)
Emax (M1 muscarinic receptor; [1]): 25 to 100%
M1 Activity (M1 muscarinic receptor; [3]): xx (activity was measured to be between 2.0 μM and 5.0 μM)

CCOC(=O)N1C2CCC1CC(N1CCC3(CC1)CC(=O)c1cc(C)ccc13)C2 (centres unmarked) [compound 949]
Emax (M4 muscarinic receptor; [1]): 25 to 100%
M4 Activity (M4 muscarinic receptor; [2]): xxx (activity was measured to be less than 2.0 μM)
Emax (M1 muscarinic receptor; [1]): 25 to 100%
M1 Activity (M1 muscarinic receptor; [3]): xxx (activity was measured to be less than 2.0 μM)

CC(=O)N[C@H]1CCC2(CCN(CCC3CCN(C(=O)OC(C)(C)C)CC3)CC2)c2ccccc21 [compound 575]
Emax (M4 muscarinic receptor; [1]): < 25%
M4 Activity (M4 muscarinic receptor; [4]): x (activity was measured to be greater than 5.0 μM)
Emax (M1 muscarinic receptor; [1]): < 25%
M1 Activity (M1 muscarinic receptor; [5]): x (activity was measured to be greater than 5.0 μM)

CCOC(=O)N1CCC(N2CCC3(CC2)CN(C(=O)N2CCCC2)c2ccccc23)CC1 [compound 959]
Emax (M4 muscarinic receptor; [1]): 25 to 100%
M4 Activity (M4 muscarinic receptor; [2]): xxx (activity was measured to be less than 2.0 μM)
Emax (M1 muscarinic receptor; [1]): 25 to 100%
M1 Activity (M1 muscarinic receptor; [3]): xx (activity was measured to be between 2.0 μM and 5.0 μM)

CCOC(=O)N1CCC(CN2CCC3(CC2)CN(C(C)=O)c2c(C)cccc23)CC1 [compound 785]
Emax (M4 muscarinic receptor; [1]): 25 to 100%
M4 Activity (M4 muscarinic receptor; [4]): xxx (activity was measured to be less than 2.0 μM)
Emax (M1 muscarinic receptor; [1]): 25 to 100%
M1 Activity (M1 muscarinic receptor; [5]): xx (activity was measured to be between 2.0 μM and 5.0 μM)

CC(=O)N1CC2(CCN(C3CC4CCC(C3)N4C(=O)O[C@@H]3CCOC3)CC2)c2cc(F)ccc21 (some centres unmarked) [compound 67]
M4 Activity (M4 muscarinic receptor; [6]): xx (activity was measured to be between 0.1 μM and 1.0 μM)
Emax (M4 muscarinic receptor; [7]): < 65%
M1 Activity (M1 muscarinic receptor; [8]): xxx (activity was measured to be less than 0.1 μM)
Emax (M1 muscarinic receptor; [9]): < 65%

O=C1CC2(CCN([C@@H]3C[C@H]4CC[C@@H]3C4)CC2)c2ccccc21 [compound 732]
Emax (M4 muscarinic receptor; [1]): 25 to 100%
M4 Activity (M4 muscarinic receptor; [4]): xx (activity was measured to be between 2.0 μM and 5.0 μM)
Emax (M1 muscarinic receptor; [1]): 25 to 100%
M1 Activity (M1 muscarinic receptor; [5]): x (activity was measured to be greater than 5.0 μM)

O=C(O)C1CC2(CCN(C3CCCCCC3)CC2)c2ccccc21 (centres unmarked) [compound 488]
Emax (M4 muscarinic receptor; [1]): 25 to 100%
M4 Activity (M4 muscarinic receptor; [4]): x (activity was measured to be greater than 5.0 μM)
Emax (M1 muscarinic receptor; [1]): 25 to 100%
M1 Activity (M1 muscarinic receptor; [5]): x (activity was measured to be greater than 5.0 μM)

CCOC(=O)N1CCC(N2CCC3(CC2)CN(C(=O)c2ccno2)c2ccc(F)cc23)CC1 [compound 321]
M4 Activity (M4 muscarinic receptor; [6]): x (activity was measured to be greater than 1.0 μM)
Emax (M4 muscarinic receptor; [7]): 65 to 85%
M1 Activity (M1 muscarinic receptor; [8]): xx (activity was measured to be between 0.1 μM and 1.0 μM)
Emax (M1 muscarinic receptor; [9]): 65 to 85%

COC(=O)N1CCC(CN2CCC3(CC2)CN(C(C)=O)c2ccc(C)cc23)CC1 [compound 423]
EC50 (M4 muscarinic receptor; [10]): > 1000 nM
Emax (M4 muscarinic receptor; [11]): < 65%
EC50 (M1 muscarinic receptor; [12]): 100 to 1000 nM
Emax (M1 muscarinic receptor; [13]): < 65%

CCOC(=O)N1CCC(N2CCC3(CC2)CN(C(=O)O[C@H]2CCOC2)c2ccc(F)cc23)CC1 [compound 428]
EC50 (M4 muscarinic receptor; [10]): > 1000 nM
Emax (M4 muscarinic receptor; [11]): < 65%
EC50 (M1 muscarinic receptor; [12]): 100 to 1000 nM
Emax (M1 muscarinic receptor; [13]): < 65%

COCCOC(=O)N1CCC(N2CCC3(CC2)CN(CCOC)c2ccc(F)cc23)CC1 [compound 658]
Emax (M4 muscarinic receptor; [1]): 25 to 100%
M4 Activity (M4 muscarinic receptor; [4]): xxx (activity was measured to be less than 2.0 μM)
Emax (M1 muscarinic receptor; [1]): 25 to 100%
M1 Activity (M1 muscarinic receptor; [5]): xxx (activity was measured to be less than 2.0 μM)

CCCC1CCC(N2CCC3(CC2)CN(C(C)=O)c2ccc(F)cc23)CC1 (centres unmarked) [compound 131]
M4 Activity (M4 muscarinic receptor; [6]): xx (activity was measured to be between 0.1 μM and 1.0 μM)
Emax (M4 muscarinic receptor; [7]): > 85%
M1 Activity (M1 muscarinic receptor; [8]): xxx (activity was measured to be less than 0.1 μM)
Emax (M1 muscarinic receptor; [9]): 65 to 85%

CC(=O)N1CC2(CCN(C3CCN(C(=O)O[C@H]4CCOC4)CC3)CC2)c2cc(C)ccc21 [compound 398]
EC50 (M4 muscarinic receptor; [10]): > 1000 nM
Emax (M4 muscarinic receptor; [11]): < 65%
EC50 (M1 muscarinic receptor; [12]): 100 to 1000 nM
Emax (M1 muscarinic receptor; [13]): < 65%

O=C(OC1CCCC1)N1C2CCC1CC(N1CCC3(CC1)C(=O)Nc1ccccc13)C2 (centres unmarked) [compound 271]
M4 Activity (M4 muscarinic receptor; [6]): xxx (activity was measured to be less than 0.1 μM)
Emax (M4 muscarinic receptor; [7]): < 65%
M1 Activity (M1 muscarinic receptor; [8]): xxx (activity was measured to be less than 0.1 μM)
Emax (M1 muscarinic receptor; [9]): 65 to 85%

CCO/N=C1\CC2(CCN([C@@H]3C[C@@H]4CC[C@@H]3C4)CC2)c2cc(Cl)ccc21 [compound 865]
Emax (M4 muscarinic receptor; [1]): 25 to 100%
M4 Activity (M4 muscarinic receptor; [2]): xxx (activity was measured to be less than 2.0 μM)
Emax (M1 muscarinic receptor; [1]): 25 to 100%
M1 Activity (M1 muscarinic receptor; [3]): xx (activity was measured to be between 2.0 μM and 5.0 μM)

CC(=O)N1CC2(CCN(CC3CCN(C(=O)OC4CCC4)CC3)CC2)c2cc(C)ccc21 [compound 757]
Emax (M4 muscarinic receptor; [1]): < 25%
M4 Activity (M4 muscarinic receptor; [4]): x (activity was measured to be greater than 5.0 μM)
Emax (M1 muscarinic receptor; [1]): < 25%
M1 Activity (M1 muscarinic receptor; [5]): x (activity was measured to be greater than 5.0 μM)

CCOC(=O)N1CCC(N2CCC3(CC2)CN(C(=O)c2ccc(F)cc2)c2ccc(F)cc23)CC1 [compound 77]
M4 Activity (M4 muscarinic receptor; [6]): xx (activity was measured to be between 0.1 μM and 1.0 μM)
Emax (M4 muscarinic receptor; [7]): < 65%
M1 Activity (M1 muscarinic receptor; [8]): xxx (activity was measured to be less than 0.1 μM)
Emax (M1 muscarinic receptor; [9]): 65 to 85%

CC(=O)N[C@H]1CC2(CCN(CC(=O)N3CCCC3)CC2)c2ccccc21 [compound 671]
Emax (M4 muscarinic receptor; [1]): < 25%
M4 Activity (M4 muscarinic receptor; [4]): x (activity was measured to be greater than 5.0 μM)
Emax (M1 muscarinic receptor; [1]): < 25%
M1 Activity (M1 muscarinic receptor; [5]): x (activity was measured to be greater than 5.0 μM)

CCOC(=O)N1CCC(N2CCC3(CC2)CN(C(=O)c2cc(C)oc2C)c2ccc(F)cc23)CC1 [compound 335]
M4 Activity (M4 muscarinic receptor; [6]): x (activity was measured to be greater than 1.0 μM)
Emax (M4 muscarinic receptor; [7]): < 65%
M1 Activity (M1 muscarinic receptor; [8]): x (activity was measured to be greater than 1.0 μM)
Emax (M1 muscarinic receptor; [9]): < 65%

CCOC(=O)N1CCC(N2CCC3(CC2)CN(C(=O)OCCF)c2ccc(F)cc23)CC1 [compound 370]
M4 Activity (M4 muscarinic receptor; [6]): xx (activity was measured to be between 0.1 μM and 1.0 μM)
Emax (M4 muscarinic receptor; [7]): > 85%
M1 Activity (M1 muscarinic receptor; [8]): xxx (activity was measured to be less than 0.1 μM)
Emax (M1 muscarinic receptor; [9]): 65 to 85%

CCOC(=O)N1C2CCC1CC(N1CCC3(CC1)CN(C(=O)Nc1ccc(F)cc1)c1ccc(F)cc13)C2 (centres unmarked) [compound 197]
M4 Activity (M4 muscarinic receptor; [6]): x (activity was measured to be greater than 1.0 μM)
Emax (M4 muscarinic receptor; [7]): < 65%
M1 Activity (M1 muscarinic receptor; [8]): xx (activity was measured to be between 0.1 μM and 1.0 μM)
Emax (M1 muscarinic receptor; [9]): < 65%

C/C=C/C(=O)N1CC2(CCN(C3CCN(C(=O)OCC)CC3)CC2)c2cc(F)ccc21 [compound 508]
Emax (M4 muscarinic receptor; [1]): 25 to 100%
M4 Activity (M4 muscarinic receptor; [4]): xxx (activity was measured to be less than 2.0 μM)
Emax (M1 muscarinic receptor; [1]): 25 to 100%
M1 Activity (M1 muscarinic receptor; [5]): xxx (activity was measured to be less than 2.0 μM)
